“Also recorded” adds a separate entry of the source. Read-outs that look alike come from different tables or passages of the source.
How the values were obtained:
[1] = tested on: vascular remodeling caused by PAH; settings: rat models; cited from earlier work
NAMPT = molecular target: T1, NAMPT (Homo sapiens, UniProt P43490); experiment: CycLex NAMPT Colorimetric Assay; assay type: biochemical; settings: for IC50: CycLex NAMPT Colorimetric Assay Kit, read-out: NAMPT Inhibition IC50
T1 construct: purchased MBL International Corporation (CycLex NAMPT Colorimetric Assay Kit Ver.2)
Method: The ability of the compounds of the disclosure to inhibit NAMPT was determined using the CycLex NAMPT Colorimetric Assay Kit Ver.2 by MBL International Corporation.
The assay detects NAMPT activity in recombinant NAMPT or endogenous NAMPT immunoprecipiated from cell lysates according to the scheme shown in FIG. 3. In this method, NAMPT converts nicotinamide to nicotinamide mononucleotide (“NMN”). Subsequently, nicotinamide mononucleotide adenylyltransferase 1 (“NMNAT1”) converts NMN to NAD^+. Resultant NAD^+ can be measured by enzyme cycling reaction using alcohol dehydrogenase (“ADH”), diaphorase and WST-1.

[2] = Solubility (2.5% v/v DMSO/water); assay type: physicochemical
[3] = tested on: human pulmonary artery smooth muscle cells (hPASMCs); experiment: PrestoBlue Assay (viability), hPASMC; assay type: cell-based; settings: for effect on HPASMC viability: dose response, FIG. 8; for IC50: hPASMC, 24 h treatment
Method: (§1) The effect of the compounds disclosed herein on the viability, proliferation, and apoptosis of human pulmonary artery endothelial cells (“hPAECs,”) and human pulmonary artery smooth muscle cells (“hPASMCs”) was determined using the PrestoBlue Assay (viability), CYQuant Direct or BrdU Assay (proliferation) or Tunel Assay (apoptosis), as described below.
(§2) HPAECs (1×10^4 cells/well) or HPASMCs (2.5×10^3 cells/well) were seeded in 96-well plates for 24 h in full-serum tissue culture medium. The full medium was removed prior to treatment with a NAMPT inhibitor prepared in medium containing 0.1% serum. NAMPT inhibitors were solubilized in 100% DMSO, unless otherwise indicated, prior to preparation of the dose response curve in 100% DMSO. The treatment dose response curve was diluted in 0.1% serum tissue culture medium and administered to cells for 24 h. DMSO diluted in the same medium was used as the vehicle control. Cell viability was measured according to the manufacturer's protocol by adding the PrestoBlue Cell Viability Reagent (ThermoFisher Scientific, #A13261) to cells for 20 min at 37° C. in a tissue culture incubator, followed by reading fluorescence at ex560/em590. Cell proliferation was measured, either in the same wells or in separate experiments, by adding the CyQuant Direct Confirmation Reagent (ThermoFisher Scientific, #C35011) for 1 h at 37° C. in a tissue culture incubator, followed by reading fluorescence at ex485/em538. Proliferation was also measured, in separate experiments, using the BrdU Cell Proliferation Assay (Calbiochem, #QIA58). After treatment with a NAMPT inhibitor for 24 h, BrdU was added to the cells in the presence of the inhibitor, for an additional 24 h and BrdU incorporation was detected according to the manufacturer's protocol. Apoptosis was analyzed by seeding cells (1×10^5 cells/well) in 6-well plates for 24 h in full-serum medium, followed by treatment with a NAMPT inhibitor for 24 h in full-serum medium. Tunel staining and detection was performed using the Tunel Assay Kit (Abcam, #ab66110) according to the manufacturer's protocol.

[4] = tested on: human pulmonary artery smooth muscle cells (hPASMCs); experiment: CyQUANT Direct Assay (proliferation), hPASMC; assay type: cell-based; settings: dose response, FIG. 9
Method: as §1, §2

[5] = tested on: human pulmonary artery endothelial cells (hPAECs); experiment: PrestoBlue Assay (viability), hPAEC; assay type: cell-based; settings: for effect on HPAEC viability: dose response, FIG. 4; for IC50: hPAEC, 24 h treatment
Method: as §1, §2

[6] = tested on: human pulmonary artery endothelial cells (hPAECs); experiment: CyQUANT Direct Assay (proliferation), hPAEC; assay type: cell-based; settings: for effect on HPAEC proliferation (CYQuant Direct assay): dose response, FIG. 5; for IC50: hPAEC, 24 h treatment
Method: as §1, §2

[7] = tested on: human pulmonary artery endothelial cells (hPAECs); experiment: BrdU Assay (proliferation), hPAEC; assay type: cell-based; settings: dose response, FIG. 6
Method: as §1, §2

[8] = tested on: human pulmonary artery smooth muscle cells (hPASMCs); experiment: BrdU Assay (proliferation), hPASMC; assay type: cell-based
Method: as §1, §2

[9] = tested on: human pulmonary artery endothelial cells (hPAECs); experiment: Tunel Assay (apoptosis), hPAEC; assay type: cell-based; settings: for IC50: hPAEC; for effect on HPAEC apoptosis: dose response, FIG. 7
Method: as §1, §2

[10] = tested on: human pulmonary artery smooth muscle cells (hPASMCs); experiment: Tunel Assay (apoptosis), hPASMC; assay type: cell-based
Method: as §1
HPAECs (1×10^4 cells/well) or HPASMCs (2.5×10^3 cells/well) were seeded in 96-well plates for 24 h in full-serum tissue culture medium. The full medium was removed prior to treatment with a NAMPT inhibitor prepared in medium containing 0.1% serum. NAMPT inhibitors were solubilized in 100% DMSO, unless otherwise indicated, prior to preparation of the dose response curve in 100% DMSO. […] Cell viability was measured according to the manufacturer's protocol by adding the PrestoBlue Cell Viability Reagent (ThermoFisher Scientific, #A13261) to cells for 20 min at 37° C. in a tissue culture incubator, followed by reading fluorescence at ex560/em590. Cell proliferation was measured, either in the same wells or in separate experiments, by adding the CyQuant Direct Confirmation Reagent (ThermoFisher Scientific, #C35011) for 1 h at 37° C. in a tissue culture incubator, followed by reading fluorescence at ex485/em538. Proliferation was also measured, in separate experiments, using the BrdU Cell Proliferation Assay (Calbiochem, #QIA58). […]

HepG2 cells = experiment: Seahorse XF Metabolism Assay (Cell Energy Phenotype Test); assay type: cell-based; parameters: Baseline OCR / Stressed OCR / Baseline ECAR / Stressed ECAR: unit not given here
Method: The effect of the compounds disclosed herein on metabolism was determined using the Seahorse XF Cell Energy Phenotype Test Kit by Agilent Technologies. See Agilent Seahorse XF Cell Energy Phenotype Test Kit, User Guide, Manual Part Number 103325-400, Kit Part Number 103325-100, First Edition, March 2017 Agilent Technologies, Inc. This assay measures mitochondrial respiration and glycolysis under baseline and stressed conditions to determine baseline phenotype, stressed phenotype, and metabolic potential.

[11] = tested on: monocrotaline (MCT)-induced pulmonary hypertension; experiment: MCT-induced pulmonary hypertension in rats; assay type: in vivo, rat; settings: 5 mg/kg every other day IP, days 22-35
Method: (§3) The ability of the compounds disclosed herein to attenuate pulmonary vascular remodeling associated with pulmonary arterial hypertension was determined using monocrotaline (“MCT”)-induced pulmonary hypertension as well as Sugen-Hypoxia-induced pulmonary hypertension in rats.
MCT 60 mg/kg IP was injected in Sprague Dawley rats. After 21 days when PH was established DGMS-RARI (5 mg/kg every other day) was injected intraperitonealy from days 22-35. At day 35 PH assessments (RVSP measurements via right heart catheterization, RVH measurement via assessment of the ratio between the weight of the right ventricle over the weight of the left ventricle+septum and pulmonary vascular remodeling assessment of H&E stained pulmonary arteries) were performed.

[12] = tested on: Sugen-Hypoxia-induced pulmonary hypertension; experiment: Sugen-Hypoxia-induced pulmonary hypertension in rats; assay type: in vivo, rat; settings: 5 mg/kg every other day IP, days 35-49
Method: as §3
Sugen 10 mg/kg IP was injected in Sprague Dawley rats who were then exposed to 10% hypoxia for 21 days. After 21 rats were returned to normoxia for 14 days. After 35 when PH was established DGMS-RARI (5 mg/kg every other day) was injected intraperitonealy from days 35-49. At day 49 PH assessments (RVSP measurements via right heart catheterization, RVH measurement via assessment of the ratio between the weight of the right ventricle over the weight of the left ventricle+septum and assessment of right ventricular function via echocardiography) were performed.

[13] = Plasma concentration and biochemical parameters in MCT-induced rats; assay type: in vivo, rat
From the text: Moreover, significant abnormalities in biochemical parameters and electrolytes were not observed.

[14] = in vivo; cited from earlier work
[15] = Homo sapiens, Endothelial cell, 24 h

T1 sequence (P43490 whole entry): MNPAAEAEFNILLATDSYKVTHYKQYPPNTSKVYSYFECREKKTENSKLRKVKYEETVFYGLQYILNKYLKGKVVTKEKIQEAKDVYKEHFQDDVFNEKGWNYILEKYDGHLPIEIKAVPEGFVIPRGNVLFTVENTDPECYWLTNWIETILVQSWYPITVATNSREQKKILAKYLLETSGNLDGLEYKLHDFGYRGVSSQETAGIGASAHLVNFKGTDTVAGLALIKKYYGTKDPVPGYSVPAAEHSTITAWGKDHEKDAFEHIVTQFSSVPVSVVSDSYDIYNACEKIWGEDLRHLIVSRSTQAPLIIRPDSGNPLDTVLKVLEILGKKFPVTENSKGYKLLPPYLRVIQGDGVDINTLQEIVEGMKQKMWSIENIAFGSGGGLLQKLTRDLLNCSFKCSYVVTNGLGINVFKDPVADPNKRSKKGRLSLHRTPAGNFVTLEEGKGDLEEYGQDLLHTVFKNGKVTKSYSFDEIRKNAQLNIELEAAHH

N#CN=C(NCCCCCCOc1ccc(Cl)cc1)Nc1ccncc1 [CHS-828]
vascular remodeling caused by PAH [1]: prevent and reverse

CC[Si]1(CC)c2ccccc2N(C(=O)CCCCCNC(=O)/C=C/c2cccnc2)C1C.Cl (centres unmarked) [DGMS-RAR-5•HCl]
inhibition at 10 µM (NAMPT; 10 μM): 98% | IC50 (NAMPT): 0.023 µM | Solubility (2.5% v/v DMSO/water) [2]: Good | effect on HPASMC viability [3]: dose-dependently decrease cell viability | effect on HPASMC proliferation (CYQuant Direct assay) [4]: dose-dependently decrease cell proliferation

Cl.O=C(/C=C/c1cccnc1)NCCCCCC(=O)N1c2ccccc2CC1c1ccccc1 (centres unmarked) [DGMS-RAR-7•HCl]
IC50 (NAMPT): 0.015 µM | Solubility (2.5% v/v DMSO/water) [2]: Good | effect on HPAEC viability [5]: dose-dependently decrease cell viability; also recorded: reduction | IC50 [5]: 13.9 µM | IC50 ([3]; Homo sapiens, 24 h): 31.1 µM | effect on HPASMC viability [3]: dose-dependently decrease cell viability | effect on HPAEC proliferation (CYQuant Direct assay) ([6]; listed as DGMS-RAR-7-HCl): dose-dependently decrease cell proliferation | effect on HPAEC proliferation (CYQuant Direct assay) ([6]; listed as DGMS-RAR-7.HCl): reduction | IC50 [6]: 26.6 µM | effect on HPASMC proliferation (CYQuant Direct assay) [4]: dose-dependently decrease cell proliferation | effect on HPAEC proliferation (BrdU assay) [7]: dose-dependently decrease cell proliferation | IC50 [8]: 63.9 µM | IC50 ([9]; Homo sapiens, Endothelial cell): 183 µM | effect on HPAEC apoptosis [9]: dose-dependently decrease apoptosis | IC50 ([10]; Homo sapiens): 116 µM

O=C(/C=C/c1cccnc1)NCCCCCC(=O)N1c2ccccc2CC1c1ccccc1 (centres unmarked) [DGMS-RAR-7•HO3SMe]
effect on HPAEC viability [5]: dose-dependently decrease cell viability; also recorded: reduction | IC50 [5]: 17.1 µM | effect on HPASMC viability [3]: dose-dependently decrease cell viability | IC50 [3]: 26.6 µM | effect on HPAEC proliferation (CYQuant Direct assay) ([6]; listed as DGMS-RAR-7-HO3SMe): dose-dependently decrease cell proliferation | effect on HPAEC proliferation (CYQuant Direct assay) ([6]; listed as DGMS-RAR-7.HO3SMe): reduction | IC50 [6]: 31.9 µM | effect on HPASMC proliferation (CYQuant Direct assay) [4]: dose-dependently decrease cell proliferation | effect on HPAEC proliferation (BrdU assay) [7]: dose-dependently decrease cell proliferation | effect on HPAEC apoptosis [9]: dose-dependently decrease apoptosis | IC50 [9]: 117 µM | IC50 [10]: 94.1 µM

O=C(/C=C/c1cccnc1)NCCCCCCn1c(-c2ccccc2)cc2ccccc21 [DGMS-RARI]
inhibition at 10 µM (NAMPT): 98% | IC50 (NAMPT): 0.014 µM | IC50 [5, 15]: 117 µM | effect on HPAEC viability [5]: dose-dependently decrease cell viability | effect on HPASMC viability [3]: dose-dependently decrease cell viability | IC50 [6, 15]: 2.88 µM | effect on HPAEC proliferation (CYQuant Direct assay) [6]: dose-dependently decrease cell proliferation | Baseline ECAR (HepG2 cells; HepG2, 80 nM): 16.16 | Baseline OCR (HepG2 cells; HepG2, 80 nM): 98.19 | Metabolic Potential (% Baseline ECAR) (HepG2 cells; HepG2, 80 nM): 288.54 % Baseline ECAR | Metabolic Potential (% Baseline OCR) (HepG2 cells; HepG2, 80 nM): 154.82 % Baseline OCR | Stressed ECAR (HepG2 cells; HepG2, 80 nM): 46.64 | Stressed OCR (HepG2 cells; HepG2, 80 nM): 152.08 | Baseline ECAR (HepG2 cells; HepG2, 2 uM): 12.28 | Baseline OCR (HepG2 cells; HepG2, 2 uM): 73.92 | Metabolic Potential (% Baseline ECAR) (HepG2 cells; HepG2, 2 uM): 334.84 % Baseline ECAR | Metabolic Potential (% Baseline OCR) (HepG2 cells; HepG2, 2 uM): 154.18 % Baseline OCR | Stressed ECAR (HepG2 cells; HepG2, 2 uM): 37.11 | Stressed OCR (HepG2 cells; HepG2, 2 uM): 111.06 | Baseline ECAR (HepG2 cells; HepG2, 10 uM): 18.28 | Baseline OCR (HepG2 cells; HepG2, 10 uM): 60.26 | Metabolic Potential (% Baseline ECAR) (HepG2 cells; HepG2, 10 uM): 194.22 % Baseline ECAR | Metabolic Potential (% Baseline OCR) (HepG2 cells; HepG2, 10 uM): 148.94 % Baseline OCR | Stressed ECAR (HepG2 cells; HepG2, 10 uM): 31.23 | Stressed OCR (HepG2 cells; HepG2, 10 uM): 89.62 | inhibition at 10 µM (HepG2 cells; Homo sapiens, HepG2 cells, high doses (10 uM), read-out: inhibition of the maximal oxygen consumption rate): ~30% | effect on cellular respiration (HepG2 cells; physiological doses (≤80 nM)): no effect on cellular respiration | degree of pulmonary vascular remodeling [11]: decreased | degree of right ventricular hypertrophy [11]: decreased | severity of elevations in RVSP [11]: decreased | degree of right ventricular dysfunction [12]: decreased | degree of right ventricular hypertrophy [12]: decreased | severity of elevations in RVSP [12]: decreased | abnormalities in biochemical parameters and electrolytes ([13]; 5 mg/kg): not observed | average concentration in rat plasma ([13]; 5 mg/kg intravenously, intraperitoneally and orally): decreased with time

O=C(/C=C/c1cccnc1)NCCCCC1CCN(C(=O)c2ccccc2)CC1 [FK866]
IC50 [6, 15]: 60.3 µM | vascular remodeling caused by PAH [1]: prevent and reverse | renal toxicity [14]: exhibit renal toxicity
